Source: US12076399B2, “Combination therapies for treating cancers” (Cothera Bioscience, Inc., priority 2017, dated 2024)

Key:
Experiment in all cases: Ex vivo drug sensitivity test (EdU proliferation, EpCAM+ cells, high-content imaging) on conditionally reprogrammed patient-derived tumor cells
Format in all cases: cell-based, human
[1] = test system: patient-derived epithelial tumor cells, pancrea; conditions: patient ZKB-011, pancrea; EpCAM and Edu positive readout; AUC concentration
Source text: (§1) Surgical specimen from colorectal cancer patients, liver cancer patients, lung cancer patients, pancreatic cancer, gastric cancer patients and breast cancer patients were obtained from the Beijing Cancer Hospital and the Cancer Hospital of Chinese Academy of Medical Science after receiving patient consensus. Patient-derived xenograft tumor specimens were obtained from Nod/SCID mice inoculated with surgical tumor specimen from patients.
(§2) For ex vivo drug sensitivity assays, the tumor cells were isolated from the patient tissue sample or PDX xenograft tumor tissue. Briefly, the tumor tissues were cut into small pieces less than 1 mm in diameter using scissors. The tumor fragments were transferred into a sterile 100-ml triangle glass flask loaded with a magnet stir bar. A 10-15 ml digestion media containing 0.25 U/ml Liberase DH was added into the minced tumor tissues to start enzyme digestion. The enzyme mixture was incubated at 37° C. for 1-2 hours with moderate stirring. The digested tumor tissue was filtered through a 100-μm cell retainer. The filtrates were re-filtered through a 40-μm cell restrainer. The tumor cell clusters retained on the 40-μm cell restrainer was collected, wash twice with HBSS, then re-suspended in a defined growth media supplemented with several stem cell growth factors.
(§3) The tumor cell clusters retained on the 40-μm cell restrainer were collected, wash twice with HBSS, then re-suspended in a defined growth media supplemented with cell growth factors and small molecule inhibitors. The tumor cell clusters were recovered in a defined growth medium overnight. The defined growth medium was StemPro® hESC SFM (defined, serum- and feeder-free medium (SFM)) supplemented with: Nicotinamide, Wnt3A, Noggin (Bone Morphogenetic Protein (BMP) inhibitor), R-spondin-1 (Wnt/β-catenin signaling agonist), and Y27632 (Rho-associated, coiled-coil containing protein kinase (ROCK-1) inhibitor).
(§4) For conditional reprogramming, the recovered CTOSs were dissociated into single cells and seeded in a feeder cell/Rock inhibitor (Y27632) co-culture system at about 3000 cells per well in cell culture plate, and grow at 37 C for 3 days.
(§5) For ex vivo drug testing, the seeded tumor cells were exposed to seven EGFR inhibitors, three MEK 1/2 inhibitors, and three CDK 4/6 inhibitors alone, or a combination of EGFR inhibitor and MEK 1/2 inhibitor, a combination of EGFR inhibitor and CDK 4/6 inhibitor, a combination of MEK 1/2 inhibitor and CDK 4/6 inhibitor, and a triple combination of EGFR inhibitor, MEK 1/2 inhibitor, and a CDK 4/6 inhibitor for 72 hours. The treated tumor cells were re-exposed to the same drug or drug combination with a fresh media change for another 72 hours. All drugs were prepared in DMSO and the final concentration of DMSO in media was 0.1%. The tested concentration of the drug and drug combinations were at relevant AUC concentration (see Table E1).
(§6) Following exposure with drug, the epithelial tumor cells were labeled with 5-ethynyl-2′-deoxyuridine (Edu) to assess the tumor cell proliferation rates. The labeling lasted 24 hours in the presence of drug exposure. In the control group, epithelial tumor cells received no drug exposure with media change, but were similarly labeled with Edu. The labeled tumor cell were fixed and stained with Hoechst 33342 in blocking buffer containing 0.5% Triton X-100 and 3% BSA overnight at 4° C. The tumor cells were incubated with EpCAM antibody (1:4000) for 2 hours at room temperature and rinsed with PBST. Subsequently, the tumor cells were incubated with Alexa FluorR 647 conjugated goat-anti-mouse secondary antibody for 30 minutes at room temperature and rinsed with PBST.
(§7) The incorporated Edu was detected by Click-iT reaction where fixed cells were incubated with a reaction mixture containing 1× Click-iT Edu reaction buffer, CuSO4, and azide-conjugated Alexa Fluor dye in the dark. The stained cells were washed with PBS two times before image acquisition and analysis. […]

[2] = test system: patient-derived epithelial tumor cells, colon; conditions: EpCAM and Edu positive readout, AUC concentration
Source text: as §1, §2, §3, §4, §5, §6, §7

[3] = test system: patient-derived epithelial tumor cells, gastric; conditions: EpCAM and Edu positive readout, AUC concentration
Source text: as §1, §2, §3, §4, §5, §6, §7

Row | SMILES | Inhibition percentage [1] | MI (Maximum Inhibition Index) [1] | Inhibition percentage ([2]; patient NYL-040, colon) | MI (Maximum Inhibition Index) ([2]; patient NYL-040, colon) | Inhibition percentage ([2]; patient NYL-053, colon) | MI (Maximum Inhibition Index) ([2]; patient NYL-053, colon) | Inhibition percentage ([2]; patient NYL-109, colon) | MI (Maximum Inhibition Index) ([2]; patient NYL-109, colon) | Inhibition percentage ([2]; patient NYL-113, colon) | MI (Maximum Inhibition Index) ([2]; patient NYL-113, colon) | Inhibition percentage ([2]; patient NYL-132, colon) | MI (Maximum Inhibition Index) ([2]; patient NYL-132, colon) | Inhibition percentage ([2]; patient NYL-149, colon) | MI (Maximum Inhibition Index) ([2]; patient NYL-149, colon) | Inhibition percentage ([2]; patient NYL-161, colon) | MI (Maximum Inhibition Index) ([2]; patient NYL-161, colon) | Inhibition percentage ([2]; patient NYL-170, colon) | MI (Maximum Inhibition Index) ([2]; patient NYL-170, colon) | Inhibition percentage ([2]; patient NYL-HZ-002, colon) | MI (Maximum Inhibition Index) ([2]; patient NYL-HZ-002, colon) | other results
1 | CC(C)(C)c1nc(-c2cccc(NS(=O)(=O)c3c(F)cccc3F)c2F)c(-c2ccnc(N)n2)s1 [D, Dabrafenib] | 0.00% | 1.00 | 7.18% | 1.08 | 9.11% | 1.10 | 34.25% | 1.52 | −3.84% | 0.96 | 29.59% | 1.42 | 75.06% | 4.01 | −6.33% | 0.94 | 52.58% | 2.11 | 0.00% | 0.83 | Inhibition percentage ([2]; patient ZKB-007, colon): 0.00%; MI (Maximum Inhibition Index) ([2]; patient ZKB-007, colon): 0.91; Inhibition percentage ([2]; patient ZKB-070, colon): 15.53%; MI (Maximum Inhibition Index) ([2]; patient ZKB-070, colon): 1.18; Inhibition percentage ([2]; patient ZKB-171, colon): 15.07%; MI (Maximum Inhibition Index) ([2]; patient ZKB-171, colon): 1.18; Inhibition percentage ([3]; patient NYP-006, gastric): 0.00%; MI (Maximum Inhibition Index) ([3]; patient NYP-006, gastric): 0.47; Inhibition percentage ([3]; patient ZKB-165, gastric): 45.31%; MI (Maximum Inhibition Index) ([3]; patient ZKB-165, gastric): 1.83
2 | CC(=O)c1c(C)c2cnc(Nc3ccc(N4CCNCC4)cn3)nc2n(C2CCCC2)c1=O [P, Palbociclib] | 85.40% | 6.85 | 85.02% | 6.68 | 63.04% | 2.71 | 40.42% | 1.68 | 44.25% | 1.79 | 48.53% | 1.94 | 57.40% | 2.35 | 26.16% | 1.35 | 67.64% | 3.09 | 52.48% | 2.10 | Inhibition percentage ([2]; patient CKY-041, colon): 9.05%; MI (Maximum Inhibition Index) ([2]; patient CKY-041, colon): 1.10; Inhibition percentage ([2]; patient ZKB-007, colon): 66.72%; MI (Maximum Inhibition Index) ([2]; patient ZKB-007, colon): 3.00; Inhibition percentage ([2]; patient ZKB-070, colon): 77.00%; MI (Maximum Inhibition Index) ([2]; patient ZKB-070, colon): 4.35; Inhibition percentage ([2]; patient ZKB-171, colon): 30.13%; MI (Maximum Inhibition Index) ([2]; patient ZKB-171, colon): 1.43; Inhibition percentage ([3]; patient NYP-006, gastric): 65.36%; MI (Maximum Inhibition Index) ([3]; patient NYP-006, gastric): 2.89; Inhibition percentage ([3]; patient ZKB-165, gastric): 86.45%; MI (Maximum Inhibition Index) ([3]; patient ZKB-165, gastric): 7.38
3 | CC(=O)Nc1cccc(-n2c(=O)n(C3CC3)c(=O)c3c(Nc4ccc(I)cc4F)n(C)c(=O)c(C)c32)c1 [T, Trametinib] | 7.36% | 1.08 | 0.00% | 0.85 | 49.02% | 1.96 | 86.79% | 7.57 | 46.31% | 1.86 | 29.60% | 1.42 | 75.78% | 4.13 | 0.59% | 1.01 | 0.00% | 0.61 | 51.53% | 2.06 | Inhibition percentage ([2]; patient CKY-041, colon): 5.05%; MI (Maximum Inhibition Index) ([2]; patient CKY-041, colon): 1.05; Inhibition percentage ([2]; patient ZKB-007, colon): 0.00%; MI (Maximum Inhibition Index) ([2]; patient ZKB-007, colon): 0.76; Inhibition percentage ([2]; patient ZKB-070, colon): −34.50%; MI (Maximum Inhibition Index) ([2]; patient ZKB-070, colon): 0.74; Inhibition percentage ([2]; patient ZKB-171, colon): 46.02%; MI (Maximum Inhibition Index) ([2]; patient ZKB-171, colon): 1.85; Inhibition percentage ([3]; patient NYP-006, gastric): 0.00%; MI (Maximum Inhibition Index) ([3]; patient NYP-006, gastric): 0.55; Inhibition percentage ([3]; patient ZKB-165, gastric): 0.00%; MI (Maximum Inhibition Index) ([3]; patient ZKB-165, gastric): 0.60
